Source: patent publication US9415049B2, “Heteroaryl compounds and uses thereof” (Celgene Avilomics Research, Inc., priority 2013, dated 2016)

Columns and labels:
[1] = target: human recombinant full-length Btk enzyme (Homo sapiens, UniProt Q06187); experiment: Omnia Continuous Read Kinase Assay, Btk inhibition; assay type: biochemical; design: human recombinant full-length Btk enzyme; settings: 30 minutes pre-incubation at 27° C.; 0.5 nM to 10 μM
Description: The following Example describes testing certain compounds according to the invention for inhibition of BTK activity. The Omnia® Continuous Read Kinase Assay uses an unnatural amino acid chelation enhanced fluorophore (Sox; 8-hydroxy-5-(N,N-dimethylsulfonamido)-2 methylquinoline) incorporated into a kinase-specific peptide substrate to characterize Btk enzyme kinetics and inhibition. Following Btk-mediated phosphorylation, a sensitive, highly quantifiable increase in real-time fluorescence is noted based upon the ability of chelated Mg2+ to form a bridge between Sox and the phosphate group on a tyrosine residue of the peptide substrate. The Omnia® continuous read assay was performed essentially as described by the vendor (Invitrogen; Carlsbad, Calif.). First, a 10× stock of human recombinant full-length Btk enzyme was prepared in Kinase Reaction Buffer. 5 μL of the 10× enzyme was pre-incubated with 0.5 μL of serially diluted compound prepared in 50% DMSO, in a 384-well microtiter plate for 30 minutes at 27° C. 1.13×ATP and the Tyr5-Sox conjugated peptide substrate were prepared in 1× Kinase Reaction Buffer. Kinase reactions were initiated by the addition of 45 μL of the 1.13×ATP-Sox peptide substrate master mix and monitored every 30 to 90 seconds for 60 minutes at λex360/λem485 in a Synergy plate reader. The IC50 values for each compound assayed were determined from test concentrations of 0.5 nM to 10 μM in half-log intervals performed in duplicate.
At the conclusion of each assay, progress curves from each well were examined for linear reaction kinetics and fit statistics (R2, 95% confidence interval, absolute sum of squares) using GraphPad software (GraphPad Prism version 5.01; San Diego, Calif.). Initial velocity (0 minutes to ˜30+ minutes) from each reaction was determined from the slope of a plot of relative fluorescence units versus time (minutes). Using control normalized % inhibition data, plots were constructed against inhibitor concentration to estimate IC50 from log [inhibitor] versus response using a variable slope model in GraphPad. The compound numbers correspond to the compound numbers in Table 1.

BTK = target: T1, BTK (Homo sapiens, UniProt Q06187); experiment: Btk target site occupancy, covalent probe ELISA in Ramos cells; assay type: cell-based; settings: 1 hour at 37° C., 0.09-200 nM, read-out: Ramos cell EC50 (nM), BTK occupancy
T1 construct: endogenous in cells; host or cells: Ramos cells
Protocol: A covalent probe shown below was used in an ELISA assay to determine occupancy of the target BTK by certain compounds according to the invention.
Ramos cells were incubated in serum-free RPMI medium for 1 hour (˜2×10^6 cells/mL in 2 mL). Test compounds were diluted from a 10 mM DMSO stock solution, to achieve a final concentration of 0.09, 0.27, 0.82, 2.47, 7.42, 22.2, 66, and 200 nM. Cells were then incubated for 1 hour at 37° C. Following incubation, cells were spun at 1100 RPM for 5 minutes then washed in 200 μL of chilled PBS. Following the wash, cells were spun at 1100 RPM for 5 minutes. The supernatant was aspirated and then cells were resuspended in lysis buffer containing protease and phosphatase inhibitors. This was followed by centrifugation for 15 minutes at 14000 RPM at 4° C. Supernatant was transferred to a fresh tube. Lysates were stored at −80° C. until assayed.
Samples were thawed and mixed well by vortexing for 5 seconds. 60 μL of each sample was added into the 96-well mixing plate followed by addition of 60 μL of covalent probe solution (2 μM probe in PBS+0.05% Tween-20+1% BSA; 1:2 sample dilution) to each well containing sample. An adhesive cover was then placed on the plate followed by mixing of the plate on a shaker for 1 hour at room temperature. The streptavidin plate was pre-washed 3 times with PBS+0.05% Tween-20. 50 μL of the standards, QCs, and samples were then transferred from the mixing plate to the streptavidin plate. The plate was covered with an adhesive cover and mixed while shaking for 1 hour at room temperature. A 1:1000 dilution of the primary anti-Btk antibody (catalog #611116, Becton Dickinson; Franklin Lakes, N.J.) in PBS+0.05% Tween-20+0.5% BSA was prepared. The streptavidin plate was washed 3 times with PBS+0.05% Tween-20 and 50 μL/well of diluted anti-Btk antibody was then pipetted into the streptavidin plate. The plate was covered and incubated for 1 hour at room temperature. A 1:5000 dilution of secondary antibody (goat anti-mouse-HRP, catalog #62-6520, Zymed-Invitrogen; Carlsbad, Calif.) in PBS+0.05% Tween-20+0.5% BSA was prepared. The streptavidin plate was again washed 3 times with PBS+0.05% Tween-20 and 50 μL/well of diluted secondary antibody was pipetted into the streptavidin plate. The plate was covered and incubated for 1 hour at room temperature. The streptavidin plate was again washed 3 times with PBS+0.05% Tween-20 followed by the addition of 100 μL of TMB solution to each well. The plate was then read on a Synergy^2 plate reader at OD 650 nm until the OD maximum reached 1.0. This was followed by the addition of 100 μL of the Stop Solution. The plate was then read at OD 450 nm. A human recombinant Btk protein standard curve (11.7-3000 pg/μL) was plotted using a 4 parameter curve fit in GenS software (Version 1.05.11; Biotek; Winooski, Vt.;). The sample ODs were read against the standard curve to calculate free protein amounts.
Data were generated as ODs on an ELISA plate reader (Synergy^2, BioTek; Winooski, Vt.). Uninhibited Btk captured by the biotinylated covalent probe was quantitated and normalized to untreated control samples. Results were expressed as % Btk occupancy. EC50 values were generated using a 4 parameter curve fit analysis in GraphPad Prism version 5.0.

Chain of human recombinant full-length Btk enzyme (Q06187 whole entry): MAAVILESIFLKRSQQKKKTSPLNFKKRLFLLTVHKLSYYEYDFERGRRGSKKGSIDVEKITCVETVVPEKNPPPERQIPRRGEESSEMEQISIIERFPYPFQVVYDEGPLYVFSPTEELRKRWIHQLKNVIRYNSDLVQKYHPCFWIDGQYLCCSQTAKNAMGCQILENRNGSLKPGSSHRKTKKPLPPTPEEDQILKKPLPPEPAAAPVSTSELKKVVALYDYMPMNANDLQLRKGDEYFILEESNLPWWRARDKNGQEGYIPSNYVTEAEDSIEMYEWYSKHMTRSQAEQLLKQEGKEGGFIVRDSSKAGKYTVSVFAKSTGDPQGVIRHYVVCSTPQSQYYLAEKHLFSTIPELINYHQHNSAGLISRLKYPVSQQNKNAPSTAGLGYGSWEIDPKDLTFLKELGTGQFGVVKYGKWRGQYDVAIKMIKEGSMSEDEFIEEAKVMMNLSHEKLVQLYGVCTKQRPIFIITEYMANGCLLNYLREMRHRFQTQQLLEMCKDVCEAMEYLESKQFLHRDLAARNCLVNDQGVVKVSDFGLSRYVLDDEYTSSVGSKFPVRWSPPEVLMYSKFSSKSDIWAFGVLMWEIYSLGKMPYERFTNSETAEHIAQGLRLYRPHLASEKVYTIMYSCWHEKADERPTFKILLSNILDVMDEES
T1 sequence (Q06187 whole entry): as above

IC50 [1] [nM]	EC50 (BTK) [nM]	Compound
≤ 10	< 50	C=CC(=O)Nc1cccc(Nc2nc(Nc3ccc(OCCO)cc3)ncc2F)c1 [Compound I-1, N-(3-((5-fluoro-2-((4-(2-hydroxyethoxy)phenyl)amino)pyrimidin-4-yl)amino)phenyl)acrylamide]
≤ 10	< 50	C=CC(=O)Nc1cccc(Nc2nc(Nc3ccc(O)cc3)ncc2F)c1 [Compound I-3, N-(3-((5-fluoro-2-((4-hydroxyphenyl)amino)pyrimidin-4-yl)amino)phenyl)acrylamide]
